The text below walks through data of patent US7928140B2, “Benzothiazole PI3 kinase modulators for cancer treatment” (Amgen Inc., priority 2007, dated 2011).

SMILES strings stand for the structures. Read-outs that look alike come from different tables or passages of the source.

The test system of test [1] is phosphorylation of Serine 473 in Akt, HCT 116 human colon carcinoma cells. Nature of the test: Cell-based phospho-AKT Ser473 assay (MSD sandwich immunoassay, IGF-1 stimulated). Particulars: read-out: HCT 116 pAKT IC50. The gist of the method:
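HCT116 cells, 16,000/well and plated overnight, were pre-treated with serially diluted compound for 2 h at 37 °C, then stimulated with IGF-1 at 100 ng/ml for 15 min. Lysates were assayed for Akt pSer473 by MSD sandwich electrochemiluminescence, and IC50 was derived from dose-response data.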

Test [2] addresses T1, PI3K α (Homo sapiens, UniProt P42336).
T1 construct: Full length p110 subunits of PI3K α, β and δ, N-terminally labeled with polyHis tag; polyHis (N); made in house; host or cells: Sf9 insect cells (baculovirus)
Nature of the test: In vitro PI3 kinase enzyme assay (alpha), ATP loss, bioluminescence.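 Note: purified p110α/p85 heterodimer acting on PtdIns(4,5)P2 at room temperature, remaining ATP read by luminescence, inhibition scaled between compound-free wells with and without enzyme.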 The test is classed as biochemical. Particulars: read-out: PI3Kα ATP loss IC50.

Test [3] has as its target T2, PI3K β (Homo sapiens, UniProt P42338).
T2 construct: Full length p110 subunits of PI3K α, β and δ, N-terminally labeled with polyHis tag; polyHis (N); made in house; host or cells: Sf9 insect cells (baculovirus)
Nature of the test: In vitro PI3 kinase enzyme assay (beta), ATP loss, bioluminescence.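 Note: purified p110β/p85 heterodimer with PtdIns(4,5)P2 as acceptor, incubated at room temperature, leftover ATP read by luminescence, inhibition scaled to compound-free wells with and without enzyme.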 Particulars: read-out: PI3Kβ ATP loss IC50. The test is classed as biochemical.

Setting [4] is: Homo sapiens, HCT-116, HCT 116 cells.

T1 sequence (P42336 whole entry, species assumed): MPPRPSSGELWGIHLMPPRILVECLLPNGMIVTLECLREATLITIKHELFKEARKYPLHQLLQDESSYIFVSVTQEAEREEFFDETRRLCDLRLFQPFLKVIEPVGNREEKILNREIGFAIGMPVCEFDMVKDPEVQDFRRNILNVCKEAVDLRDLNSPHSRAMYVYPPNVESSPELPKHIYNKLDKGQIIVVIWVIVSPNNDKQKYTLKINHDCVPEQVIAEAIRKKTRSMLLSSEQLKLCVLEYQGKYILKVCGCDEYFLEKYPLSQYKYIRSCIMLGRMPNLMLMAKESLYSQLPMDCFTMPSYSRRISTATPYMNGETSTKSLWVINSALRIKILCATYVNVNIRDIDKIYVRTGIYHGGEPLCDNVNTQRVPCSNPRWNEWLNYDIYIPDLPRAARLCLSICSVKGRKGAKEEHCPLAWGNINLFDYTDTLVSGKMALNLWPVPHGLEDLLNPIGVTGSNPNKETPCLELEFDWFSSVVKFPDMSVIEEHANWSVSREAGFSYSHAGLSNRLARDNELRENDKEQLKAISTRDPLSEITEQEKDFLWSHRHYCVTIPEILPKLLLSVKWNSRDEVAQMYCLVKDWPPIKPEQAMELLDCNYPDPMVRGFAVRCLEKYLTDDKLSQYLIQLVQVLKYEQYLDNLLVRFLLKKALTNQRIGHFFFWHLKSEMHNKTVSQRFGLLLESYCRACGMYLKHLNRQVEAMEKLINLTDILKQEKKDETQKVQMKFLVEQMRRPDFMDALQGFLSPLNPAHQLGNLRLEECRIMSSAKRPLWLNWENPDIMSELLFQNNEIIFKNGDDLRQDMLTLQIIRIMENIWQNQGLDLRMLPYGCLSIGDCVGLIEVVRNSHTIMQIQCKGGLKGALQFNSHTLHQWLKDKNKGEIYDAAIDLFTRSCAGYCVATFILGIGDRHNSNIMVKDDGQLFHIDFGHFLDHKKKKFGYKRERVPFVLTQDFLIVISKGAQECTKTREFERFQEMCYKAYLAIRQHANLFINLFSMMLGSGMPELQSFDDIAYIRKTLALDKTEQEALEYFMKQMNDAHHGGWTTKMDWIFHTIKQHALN
T1 sequence (P27986 whole entry partner, species assumed): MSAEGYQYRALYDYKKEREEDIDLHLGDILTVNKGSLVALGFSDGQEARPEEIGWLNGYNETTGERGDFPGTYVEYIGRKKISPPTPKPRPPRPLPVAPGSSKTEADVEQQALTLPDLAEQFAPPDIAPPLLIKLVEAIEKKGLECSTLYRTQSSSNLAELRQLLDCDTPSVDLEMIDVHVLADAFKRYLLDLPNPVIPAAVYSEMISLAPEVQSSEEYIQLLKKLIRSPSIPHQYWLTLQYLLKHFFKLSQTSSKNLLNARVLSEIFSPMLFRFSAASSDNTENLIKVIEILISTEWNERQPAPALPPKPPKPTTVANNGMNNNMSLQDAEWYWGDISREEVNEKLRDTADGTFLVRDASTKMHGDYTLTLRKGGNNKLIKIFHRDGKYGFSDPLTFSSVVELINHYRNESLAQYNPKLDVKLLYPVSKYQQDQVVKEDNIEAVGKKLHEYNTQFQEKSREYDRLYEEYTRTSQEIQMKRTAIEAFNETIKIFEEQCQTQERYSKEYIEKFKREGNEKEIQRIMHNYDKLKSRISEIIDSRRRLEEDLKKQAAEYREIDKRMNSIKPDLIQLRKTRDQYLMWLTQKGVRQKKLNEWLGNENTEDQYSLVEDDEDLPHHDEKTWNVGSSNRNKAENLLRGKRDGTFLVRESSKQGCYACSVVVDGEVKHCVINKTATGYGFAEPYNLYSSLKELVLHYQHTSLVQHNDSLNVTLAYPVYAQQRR
T2 sequence (P42338 whole entry): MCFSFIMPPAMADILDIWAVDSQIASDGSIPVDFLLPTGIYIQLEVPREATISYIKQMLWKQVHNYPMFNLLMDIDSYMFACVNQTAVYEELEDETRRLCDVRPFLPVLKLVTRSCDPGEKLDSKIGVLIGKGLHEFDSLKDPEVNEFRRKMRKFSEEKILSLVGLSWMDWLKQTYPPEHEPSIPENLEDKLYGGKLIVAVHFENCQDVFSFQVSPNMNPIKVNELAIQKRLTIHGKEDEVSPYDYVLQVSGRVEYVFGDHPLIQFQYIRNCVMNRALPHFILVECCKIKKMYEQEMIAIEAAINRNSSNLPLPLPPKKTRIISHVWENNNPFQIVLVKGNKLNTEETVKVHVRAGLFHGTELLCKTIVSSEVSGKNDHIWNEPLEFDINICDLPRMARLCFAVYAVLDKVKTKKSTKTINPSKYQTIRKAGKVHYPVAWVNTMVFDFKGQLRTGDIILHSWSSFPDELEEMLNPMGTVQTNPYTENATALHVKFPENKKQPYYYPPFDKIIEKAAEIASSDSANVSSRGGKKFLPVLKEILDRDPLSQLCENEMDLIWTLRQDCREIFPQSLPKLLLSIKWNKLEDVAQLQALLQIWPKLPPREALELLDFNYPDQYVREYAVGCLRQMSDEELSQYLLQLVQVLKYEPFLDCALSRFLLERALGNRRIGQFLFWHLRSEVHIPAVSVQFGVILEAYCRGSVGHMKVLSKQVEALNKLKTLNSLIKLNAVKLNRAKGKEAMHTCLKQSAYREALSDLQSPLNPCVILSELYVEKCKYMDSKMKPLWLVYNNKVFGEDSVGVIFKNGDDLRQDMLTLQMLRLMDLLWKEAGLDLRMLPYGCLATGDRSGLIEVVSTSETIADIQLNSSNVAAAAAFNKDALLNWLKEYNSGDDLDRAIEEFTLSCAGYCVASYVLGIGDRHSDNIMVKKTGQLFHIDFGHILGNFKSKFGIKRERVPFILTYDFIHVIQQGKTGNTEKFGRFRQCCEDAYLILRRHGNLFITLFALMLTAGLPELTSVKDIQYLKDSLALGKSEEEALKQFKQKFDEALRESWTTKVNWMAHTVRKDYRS
T2 sequence (P27986 whole entry partner): as the sequence (P27986 whole entry partner, species assumed) above

As for `CC(=O)Nc1nc2ccc(-c3cnc(Cl)c(NS(=O)(=O)c4ccc(C(C)O)cc4)c3)cc2s1` (single isomer, unassigned) [Example 257, N-(6-(6-chloro-5-(((4-(1-hydroxyethyl)phenyl)sulfonyl)amino)-3-pyridinyl)-1,3-benzothiazol-2-yl)acetamide], the IC50 in test [1] (HCT 116 cells) was 0.0083 µM; in test [2], 0.0062 µM; in test [3], 0.0072 µM.
Consider `CC(=O)Nc1nc2ccc(-c3ccnc(Sc4ccccc4Br)n3)cc2s1` [Example 134, N-(6-(2-((2-bromophenyl)sulfanyl)-4-pyrimidinyl)-1,3-benzothiazol-2-yl)acetamide], for which the IC50 in test [1] (setting [4]) is 1.22 µM; in test [2], 0.047 µM; in test [3], 0.668 µM.
On the same counts, the results for `CC(C)Nc1cc(-c2ccc3nc(N)sc3c2)cnc1Cl` [Example 155, 6-(6-chloro-5-((1-methylethyl)amino)-3-pyridinyl)-1,3-benzothiazol-2-amine] are 1.99 µM, 0.509 µM and 1.15 µM.
On the same counts, the results for `CC(=O)Nc1nc2ccc(-c3cnc(Cl)c(NS(=O)(=O)c4ccc(C(C)O)cc4)c3)cc2s1` (stereo not drawn) [Example 256, N-(6-(6-chloro-5-(4-(1-hydroxyethyl)phenylsulfonamido)pyridin-3-yl)benzo[d]thiazol-2-yl)acetamide] are 0.0099 µM, 0.0052 µM and 0.0073 µM.
`CC(=O)Nc1nc2ccc(-c3ccnc(NS(=O)(=O)c4ccc(C)cc4)n3)cc2s1` [Example 83, N-(6-(2-(((4-methylphenyl)sulfonyl)amino)-4-pyrimidinyl)-1,3-benzothiazol-2-yl)acetamide]: the half-inhibitory concentration (IC50) is 0.408 µM in test [1] (setting [4]), 0.0343 µM in test [2] and 0.062 µM in test [3].
The corresponding values for `Nc1nc2ccc(-c3cnc(Cl)c(NS(=O)(=O)c4ccc(Cl)cc4Cl)c3)cc2s1` [Example 310, N-(5-(2-amino-1,3-benzothiazol-6-yl)-2-chloro-3-pyridinyl)-2,4-dichlorobenzenesulfonamide] are 0.402 µM, 0.0076 µM and 0.0174 µM.
For `CC(=O)Nc1nc2ccc(-c3cnc(Cl)c(O)c3)cc2s1` [Example 301, N-(6-(6-chloro-5-hydroxypyridin-3-yl)benzo[d]thiazol-2-yl)acetamide], the IC50 in test [1] (setting [4]) was determined as 0.1 µM; in test [2] it was 0.005 µM; in test [3], 0.0941 µM.
On to `CC(=O)Nc1nc2ccc(-c3ccnc(OCC(C)(C)C)n3)cc2s1` [Example 42, N-(6-(2-(2,2-dimethylpropoxy)-4-pyrimidinyl)-1,3-benzothiazol-2-yl)acetamide], for which the IC50 in test [1] (setting [4]) was 6.18 µM; in test [2] it was 0.501 µM; in test [3], 43 µM.
The corresponding values for `CC(=O)Nc1nc2ccc(-c3ccnc(NC4CCOCC4)n3)cc2s1` [Example 261, N-(6-(2-(tetrahydro-2H-pyran-4-ylamino)pyrimidin-4-yl)benzo[d]thiazol-2-yl)acetamide] are 1.7 µM, 0.9 µM and 13.1 µM.
With `CC(=O)Nc1nc2ccc(-c3ccnc(N(C)S(=O)(=O)c4ccc(C)cc4C)n3)cc2s1` [Example 212, N-(6-(2-(N,2,4-trimethylphenylsulfonamido)pyrimidin-4-yl)benzo[d]thiazol-2-yl)acetamide], the IC50 was found to be 0.237 µM in test [1] (setting [4]), 0.0722 µM in test [2] and 0.0603 µM in test [3].
